Assay results taken from EP4685153A1 (priority 2023, dated 2024).
Residues, ends and D or L forms follow the SMILES beside them. *: point of attachment. Succinyl(4-O-cholesteryl) = CC(C)CCC[C@@H](C)[C@H]1CC[C@H]2[C@@H]3CC=C4C[C@@H](OC(=O)CCC(=O)*)CC[C@]4(C)[C@H]3CC[C@]12C

Experiments:
[1] = In vitro cytotoxicity (CCK-8), TZM-bl cells; assay type: cell-based; conditions: human, CCK-8, 48 hours
Protocol: (§1) The in vitro cytotoxicity was detected by using a CCK-8 cell proliferation/toxicity assay kit (manufacturer: Abbkine, Cat. No.: KTC 011001). […] By using GraphPad Prism software, the inhibition rate curve was fitted and the half-maximal cytotoxic concentration (CC50) of the drug was calculated.

[2] = In vitro cytotoxicity (CCK-8), MT-4 cells; assay type: cell-based; conditions: human, CCK-8, 48 hours
Protocol: as §1

[3] = In vitro cytotoxicity (CCK-8), MDCK cells; assay type: cell-based; conditions: dog, CCK-8, 48 hours
Protocol: as §1

[4] = In vitro cytotoxicity (CCK-8), Huh-7 cells; assay type: cell-based; conditions: human, CCK-8, 48 hours
Protocol: as §1

[5] = In vitro cytotoxicity (CCK-8), Hep-2 cells; assay type: cell-based; conditions: human, CCK-8, 48 hours
Protocol: as §1

[6] = In vitro cytotoxicity (CCK-8), HEK293T cells; assay type: cell-based; conditions: human, CCK-8, 48 hours
Protocol: as §1

[7] = In vitro cytotoxicity (CCK-8), 293T/ACE2 cells; assay type: cell-based; conditions: human, CCK-8, 48 hours
Protocol: as §1

seven test cells = test: In vitro cytotoxicity (CCK-8), average over seven test cells; assay type: cell-based; conditions: CC50/IC50
Protocol: as §1

[8] = Circular dichroism of lipopeptide alone; assay type: physicochemical; conditions: CD, 10 µM in PBS pH 7.2
[9] = tested on: HIV-1 strain NL4-3 pseudovirus; conditions: strain NL4-3 pseudovirus
[10] = tested on: HIV-1 strain JRFL pseudovirus; conditions: strain JRFL pseudovirus
[11] = tested on: HIV-1 strain SG3.1 living virus; conditions: for inhibitory activity higher than that of the T20, SG3.1: TZM-bl cells, versus T20
[12] = tested on: replicative HIV-1 strain JR-CSF; conditions: for inhibitory activity higher than the T20, JR-CSF: TZM-bl cells, versus T20; for IC50: replicative strain JR-CSF, 48 h
[13] = tested on: representative pandemic HIV-1 strain pseudoviruses; conditions: for IC50: representative pandemic strain pseudoviruses, 48 h; for inhibitory activity against 12 pseudoviruses higher than that of the T20: versus T20
[14] = tested on: T20-resistant mutant strains (HIV-1 strain NL4-3); conditions: for IC50: T20-resistant mutant strains ( strain NL4-3, 48 h); for inhibitory activity against 12 drug-resistant mutant strains higher than that of the LP-98: versus LP-98
MERS-CoV = conditions: 48 h
EBOV = conditions: 48 h
MARV = conditions: 48 h
H7N9 = conditions: 48 h
RABV = conditions: 48 h
VSV = conditions: 48 h
[15] = tested on: protease K, trypsin, or α-chymotrypsin
[16] = tested on: HIV-1 envelope protein (Env); test: Env-mediated cell-cell fusion inhibition (DSP reporter system); conditions: for IC50: read-out: average IC50 value, membrane fusion of 12 viruses, average over Env of 12 representative pandemic HIV-1 strains; for inhibitory activity against membrane fusions of 12 viruses higher than that of the T20: versus T20
N44 = N44 (Human immunodeficiency virus type 1 group M subtype B, UniProt P04578); test: Circular dichroism of lipopeptide complex with target sequence N44; conditions: CD; for Tm value of the mixture with N44: [θ]222, 20-98 °C at 2 °C/min; for α-helix content of the mixture with N44: lipopeptide and N44 each 10 µM in PBS pH 7.2
[17] = Temperature stability experiment (antiviral activity after storage); conditions: 300 µM aqueous solution, room temperature or 37 °C, various time periods; NL4-3 pseudovirus, TZM-bl cells
[18] = Human serum stability experiment (antiviral activity after incubation); conditions: 20% human serum, 37 °C, 0 to 240 minutes; NL4-3 pseudovirus, TZM-bl cells

Sequence of N44 (P04578 538-581): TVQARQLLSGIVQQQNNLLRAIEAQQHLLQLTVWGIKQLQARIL

Row | SMILES | CC50 at 48 h [1] [nM] | CC50 at 48 h [2] [nM] | CC50 at 48 h [3] [nM] | CC50 at 48 h [4] [nM] | CC50 at 48 h [5] [nM] | CC50 at 48 h [6] [nM] | CC50 at 48 h [7] [nM] | therapeutic selective index (SI) (seven test cells) | α-helix content, lipopeptide alone [8] [%] | IC50 [9] [nM] | IC50 [10] [nM] | inhibitory activity higher than that of the T20, SG3.1 [11] [folds] | inhibitory activity higher than the T20, JR-CSF [12] [folds] | IC50 [12] [nM] | IC50 [13] [nM] | inhibitory activity against 12 pseudoviruses higher than that of the T20 [13] [folds] | IC50 [14] [nM] | inhibitory activity against 12 drug-resistant mutant strains higher than that of the LP-98 [14] [folds] | IC50 (MERS-CoV) [nM] | IC50 (EBOV) [nM] | further results
1 | CC[C@H](C)[C@H](NC(=O)[C@H](CCCCN)NC(=O)[C@H](CCCCN)NC(=O)[C@H](CCC(=O)O)NC(=O)[C@H](CC(C)C)NC(=O)[C@H](CCC(=O)O)NC(=O)[C@H](CCC(=O)O)NC(=O)[C@H](CC(C)C)NC(=O)[C@H](CCC(=O)O)NC(=O)[C@H](CCCCN)NC(=O)[C@H](CCC(=O)O)NC(=O)[C@H](Cc1ccc(O)cc1)NC(=O)[C@H](CCC(=O)O)NC(C)=O)C(=O)N[C@@H](CCC(=O)O)C(=O)N[C@@H](CCC(=O)O)C(=O)N[C@@H](CC(C)C)C(=O)N[C@@H](CC(C)C)C(=O)N[C@@H](CCCCN)C(=O)N[C@@H](CCCCN)C(=O)N[C@@H](C)C(=O)N[C@@H](CCC(=O)O)C(=O)N[C@@H](CCC(=O)O)C(=O)N[C@@H](CCC(N)=O)C(=O)N[C@@H](CCC(N)=O)C(=O)N[C@@H](CCCCN)C(=O)N[C@@H](CCCCN)C(=O)N[C@@H](CC(N)=O)C(=O)N[C@@H](CCC(=O)O)C(=O)N[C@@H](C)C(=O)N[C@@H](C)C(=O)N[C@@H](C)C(=O)N[C@@H](CCCCN)C(=O)N[C@@H](CCCCNC(=O)CCC(=O)O[C@H]1CC[C@@]2(C)C(=CC[C@H]3[C@@H]4CC[C@H]([C@H](C)CCCC(C)C)[C@@]4(C)CC[C@@H]32)C1)C(N)=O [LP-128] (Ac-EYEKELEELEKKIEELLKKAEEQQKKNEAAAKK(Succinyl(4-O-cholesteryl))-NH2) | 7490 | 28200 | 18000 | 40300 | 12500 | 8720 | 24100 | very high | 66 | 0.00327 | 0.00497 | 4282 | 750 | 0.00747 | 0.00319 | 6286 | 0.00913 | 292 | 456 | 274 | IC50 ([11]; strain SG3.1 living virus): 0.00175 nM; IC50 (MARV): 534 nM; IC50 (H7N9): 353 nM; IC50 (RABV): 1130 nM; IC50 (VSV): 1490 nM; change in antiviral activity after treatment with three proteases [15]: no significant change; IC50 [16]: 0.00402 nM; inhibitory activity against membrane fusions of 12 viruses higher than that of the T20 [16]: 2790 folds; Tm value of the mixture with N44 (N44): 90 °C; α-helix content of the mixture with N44 (N44): 84%; change in antiviral activity after treatment at different temperatures [17]: no significant change; change in antiviral activity after treatment with human serum [18]: no significant change
2 | CC[C@H](C)[C@H](NC(=O)[C@H](CCCCN)NC(=O)[C@H](CCCCN)NC(=O)[C@H](CCC(=O)O)NC(=O)[C@H](CC(C)C)NC(=O)[C@H](CCC(=O)O)NC(=O)[C@H](CCC(=O)O)NC(=O)[C@H](CC(C)C)NC(=O)[C@H](CCC(=O)O)NC(=O)[C@H](CCCCN)NC(=O)[C@H](CCC(=O)O)NC(=O)[C@H](Cc1ccc(O)cc1)NC(=O)[C@H](CCC(=O)O)NC(=O)[C@H](CCC(=O)O)NC(=O)[C@H](Cc1ccc(O)cc1)NC(=O)[C@H](CCC(=O)O)NC(C)=O)C(=O)N[C@@H](CCC(=O)O)C(=O)N[C@@H](CCC(=O)O)C(=O)N[C@@H](CC(C)C)C(=O)N[C@@H](CC(C)C)C(=O)N[C@@H](CCCCN)C(=O)N[C@@H](CCCCN)C(=O)N[C@@H](C)C(=O)N[C@@H](CCC(=O)O)C(=O)N[C@@H](CCC(=O)O)C(=O)N[C@@H](CCC(N)=O)C(=O)N[C@@H](CCC(N)=O)C(=O)N[C@@H](CCCCN)C(=O)N[C@@H](CCCCN)C(=O)N[C@@H](CC(N)=O)C(=O)N[C@@H](CCC(=O)O)C(=O)N[C@@H](C)C(=O)N[C@@H](C)C(=O)N[C@@H](C)C(=O)N[C@@H](CCCCN)C(=O)N[C@@H](CCCCNC(=O)CCC(=O)O[C@H]1CC[C@@]2(C)C(=CC[C@H]3[C@@H]4CC[C@H]([C@H](C)CCCC(C)C)[C@@]4(C)CC[C@@H]32)C1)C(N)=O [LP-127] (Ac-EYEEYEKELEELEKKIEELLKKAEEQQKKNEAAAKK(Succinyl(4-O-cholesteryl))-NH2) | 10200 | 15400 | 12900 | 31300 | 16500 | 9070 | 14400 | very high | 57 | 0.00501 | 0.00563 | 1427 | 539 | 0.0104 | 0.00489 | 4101 | 0.00702 | 379 | 383 | 61.7 | IC50 (MARV): 144 nM; IC50 (H7N9): 415 nM; IC50 (RABV): 1730 nM; IC50 (VSV): 1510 nM; change in antiviral activity after treatment with three proteases [15]: no significant change; IC50 [16]: 0.00497 nM; inhibitory activity against membrane fusions of 12 viruses higher than that of the T20 [16]: 2256 folds; Tm value of the mixture with N44 (N44): 92 °C; α-helix content of the mixture with N44 (N44): 68%; change in antiviral activity after treatment at different temperatures [17]: no significant change; change in antiviral activity after treatment with human serum [18]: no significant change
